Common to all, as to type: in vivo
One assay has as its system Fusarium graminearum. Particulars: Table L; 62.5 ppm a.i.
Assay [1] has as its system Blumeria graminis fsp. tritici. As to the kind of experiment: Blumeria test (wheat)/preventive. The settings on record: Table G; 62.5 ppm a.i. As for the experimental part: (§1) Solvent: 49 parts by weight of n,n-dimethylacetamid
(§2) Emulsifier: 1 part by weight of alkylaryl polyglycol ether
(§3) To produce a suitable preparation of active compound, 1 part by weight of active compound or active compound combination is mixed with the stated amounts of solvent and emulsifier, and the concentrate is diluted with water to the desired concentration. To test for preventive activity, young plants are sprayed with the preparation of active compound or active compound combination at the stated rate of application. After the spray coating has been dried, the plants are dusted with spores of Blumeria graminis fsp. tritici. The plants are placed in the greenhouse at a temperature of approximately 18° C. and a relative atmospheric humidity of approximately 80% to promote the development of mildew pustules. The test is evaluated 7 days after the inoculation. 0% means an efficacy which corresponds to that of the untreated control, while an efficacy of 100% means that no disease is observed.

The test system of another assay is Botrytis cinerea. As to the kind of experiment: Botrytis test (beans)/protective. Particulars: Botrytis cinerea, 48 h, Table F, test 3, read-out: Efficacy in % found. As for the experimental part: (§4) Solvent: 24.5 parts by weight of acetone
(§5) • 24.5 parts by weight of dimethylacetamide Emulsifier: 1 part by weight of alkylaryl polyglycol ether
To produce a suitable preparation of active compound, 1 part by weight of active compound is mixed with the stated amounts of solvent and emulsifier, and the concentrate is diluted with water to the desired concentration. To test for protective activity, young plants are sprayed with the preparation of active compound. After the spray coating has dried on, 2 small pieces of agar covered with growth of Botrytis cinerea are placed on each leaf. The inoculated plants are placed in a darkened chamber at 20° C. and a relative atmospheric humidity of 100%. 2 days after the inoculation, the size of the lesions on the leaves is evaluated. 0% means an efficacy which corresponds to that of the control, while an efficacy of 100% means that no disease is observed.

The test system of the next assay is Puccinia triticina. As to the kind of experiment: Puccinia triticina-test (wheat)/preventive. The settings on record: Table M; 62.5 ppm a.i. As for the experimental part:
as §1, §2
as §3, with “sprayed” for “dusted”, “a spore suspension” for “spores”, “Puccinia triticina. The plants remain for 48 hours in an incubation cabinet at approximately 20° C. and a relative atmospheric humidity of approximately 100%.” for “Blumeria graminis fsp. tritici.”, “20°” for “18°”, “80%.” for “80% to promote the development of mildew pustules.”, “8” for “7”

Another assay relates to Alternaria solani. As to the kind of experiment: Alternaria test (tomatoes)/protective. Particulars: Table E, test 2, 2.5 ppm a.i.; for pest or weed control at 2.5 ppm: Alternaria solani, 72 h, read-out: Efficacy in % found. As to the method:
as §4, §5
(§6) To produce a suitable preparation of active compound, 1 part by weight of active compound is mixed with the stated amounts of solvent and emulsifier, and the concentrate is diluted with water to the desired concentration. To test for protective activity, young plants are sprayed with the preparation of active compound at the stated rate of application. After the spray coating has dried on, the plants are inoculated with an aqueous spore suspension of Alternaria solani. The plants are then placed in an incubation cabinet at approximately 20° C. and a relative atmospheric humidity of 100%. The test is evaluated 3 days after the inoculation. 0% means an efficacy which corresponds to that of the control while an efficacy of 100% means that no disease is observed.

Another assay relates to Plasmopara viticola. The assay is described as follows: Plasmopara test (grapevines)/protective. Particulars: Table B. As to the method:
as §4, §5
as §6, with “Plasmopara viticola and” for “Alternaria solani. The plants are”, “remain for 1 day” for “placed”, “The plant is subsequently placed for 4 days in a greenhouse at approximately 21° C. and a relative atmospheric humidity of approximately 90%. The plants are then misted and placed for 1 day in an incubation cabinet. The” for “The”, “6” for “3”, “control,” for “control”

A further assay has as its system Sphaerotheca fuliginea. The assay is described as follows: Sphaerotheca test (cucumbers)/protective. Particulars: Table C, test 4; 5 ppm a.i. As to the method:
as §4, §5
To produce a suitable preparation of active compound, 1 part by weight of active compound is mixed with the stated amounts of solvent and emulsifier, and the concentrate is diluted with water to the desired concentration. To test for protect activity, young plants are sprayed with the preparation of active compound at the stated rate of application. After the spray coating has dried on, the plants are inoculated with an aqueous spore suspension of Sphaerotheca fuliginea. The plants are then placed in a greenhouse at approximately 23° C. and a relative atmospheric humidity of approximately 70%. The test is evaluated 7 days after the inoculation. 0% means an efficacy which corresponds to that of the control, while an efficacy of 100% means that no disease is observed.

The next assay relates to Phytophthora infestans. As to the kind of experiment: whole plant or invertebrate. Particulars: Phytophthora infestans, 72 h, read-out: Efficacy in % found, Table A, test 1; 1 ppm a.i.

Consider `CC1(C)CCC(Cc2ccc(Cl)cc2)C1(O)Cn1cncn1` (stereo not drawn) [1.30, metconazole], for which the “Efficacy in % found” value in the assay on Fusarium graminearum was 0%. With `CCCC1COC(Cn2cncn2)(c2ccc(Cl)cc2Cl)O1` (stereo not drawn) [(1.40), propiconazole], the “Efficacy in % found” value in assay [1] turned out to be 38%. On to `CC(C)CC(C)c1sccc1NC(=O)c1cn(C)nc1C(F)(F)F` (stereo not drawn) [(2.20), penthiopyrad], for which the results for the pest or weed control at 2.5 ppm in the assay on Botrytis cinerea (2.5 ppm a.i.) and with Alternaria solani were 65% and 50%, respectively. In the assay on Puccinia triticina, the “Efficacy in % found” value was determined as 70%. As for `Cc1ccc(-c2c(Cl)nc(C#N)n2S(=O)(=O)N(C)C)cc1` [(3.3), cyazofamid], the “Efficacy in % found” value in the assay with Plasmopara viticola (1 ppm a.i.) is recorded as 0%.

As for `CNC(=O)/C(=N/OC)c1ccccc1Oc1ccccc1` [(3.10), metominostrobin], the pest or weed control at 50 ppm with Botrytis cinerea (50 ppm a.i.) came out at 55%. The “Efficacy in % found” value in assay [1] turned out to be 13%. For the same molecule, the pest or weed control at 2.5 ppm in the assay with Alternaria solani worked out at 15%. As for `CO/C=C(/C(=O)OC)c1ccccc1COc1cccc(C(F)(F)F)n1` [(3.12), picoxystrobin], the “Efficacy in % found” value in the assay with Puccinia triticina is recorded as 80%; in the assay on Alternaria solani, 60%; in the assay with Sphaerotheca fuliginea it was 62%.

In the case of `CCC(C)(NC(=O)c1cc(Cl)c(C)c(Cl)c1)C(=O)CCl` (stereo not drawn) [(4.9), zoxamide], the pest or weed control at 1 ppm with Phytophthora infestans turned out to be 58%. In addition, the “Efficacy in % found” value in the assay on Plasmopara viticola (2 ppm a.i.) stood at 6%. Consider `C#CCOc1ccc(CCNC(=O)C(OCC#C)c2ccc(Cl)cc2)cc1OC` (stereo not drawn) [(9.5), mandipropamid], for which the “Efficacy in % found” value in the assay on Plasmopara viticola (1 ppm a.i.) was found to be 57%.

The record behind these values is US9006139B2, “Active compound combinations” (Bayer Intellectual Property GmbH, priority 2009, dated 2015).
